Experimental data reported in patent publication US10144715B2, “Piperazine derivatives as liver X receptor modulators” (priority 2014, dated 2018).
Read-outs that look alike come from different tables or passages of the source.

What was measured:
LXR β LBD protein [1] = biological target: T1, LXR β LBD protein (Homo sapiens (Human), UniProt P55055); test: biochemical; assay type: biochemical; settings: for EC50: read-out: FRET LXRβ EC50
Target sequence in this assay (P55055 222-460): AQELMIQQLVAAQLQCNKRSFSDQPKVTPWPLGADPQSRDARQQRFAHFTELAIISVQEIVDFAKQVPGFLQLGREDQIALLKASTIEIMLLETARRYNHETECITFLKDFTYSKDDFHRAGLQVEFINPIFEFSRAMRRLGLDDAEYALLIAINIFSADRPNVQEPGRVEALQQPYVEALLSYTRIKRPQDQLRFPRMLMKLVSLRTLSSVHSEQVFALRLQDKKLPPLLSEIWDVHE

[2] = biological target: Gal4 DNA binding domain fused to the LBD of LXRβ in HEK293 cells (Homo sapiens (Human), UniProt P55055); test: cell-based
LXR α LBD protein [3] = biological target: T2, LXR α LBD protein (Homo sapiens (Human), UniProt Q13133); test: Human LXRα coactivator recruitment FRET assay, agonist mode; assay type: biochemical
How it was run: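 LXRα- or LXRβ-LBD at 10 nM (2×) mixed with compound in DMSO, then fluorescein-SRC2-3 peptide 200 nM and Tb-anti-GST antibody 20 nM (4×) added; 2 h at rt. Time-resolved FRET read, 100 µs delay, 200 µs window; EC50 from four-parameter fit of percent control.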

LXR α LBD protein [4] = biological target: T2, LXR α LBD protein; test: LXR α radioligand binding assay (SPA, competition with [3H]TO901317); settings: read-out: LXRα Binding Ki
LXR β LBD protein [5] = biological target: T1, LXR β LBD protein; test: biochemical; assay type: binding; settings: read-out: LXRβ Binding Ki
Target sequence in this assay (P55055 222-460 limits assumed): as the sequence (P55055 222-460) above

[6] = biological target: T3, Gal4 DNA binding domain fused to the LBD of LXRα in HEK293 cells (Homo sapiens (Human), UniProt Q13133); test: LXR luciferase transcriptional reporter gene assay, agonist mode, LXRα; assay type: cell-based
[7] = biological target: T3, Gal4 DNA binding domain fused to the LBD of LXRα in HEK293 cells; test: LXR luciferase transcriptional reporter gene assay, antagonist mode (200 nM T0901317), LXRα; assay type: cell-based
[8] = Biological Test Example 3, agonist mode
[9] = agonist mode, read-out: Cell LXRα EC50
[10] = agonist mode, read-out: Cell LXRβ EC50

T2 sequence (Q13133 209-447): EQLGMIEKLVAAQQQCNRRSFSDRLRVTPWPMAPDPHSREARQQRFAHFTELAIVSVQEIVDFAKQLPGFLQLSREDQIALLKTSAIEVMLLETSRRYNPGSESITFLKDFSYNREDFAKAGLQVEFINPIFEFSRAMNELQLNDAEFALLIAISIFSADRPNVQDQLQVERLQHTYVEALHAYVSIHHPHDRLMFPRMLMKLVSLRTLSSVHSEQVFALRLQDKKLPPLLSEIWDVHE
T3 sequence (Q13133 209-447): as above
Chain of Gal4 DNA binding domain fused to the LBD of LXRβ in HEK293 cells (P55055 222-460 limits assumed): as the sequence (P55055 222-460) above

Compound | EC50 (LXR β LBD protein [1]) [nM] | EC50 [2] [nM] | EC50 (LXR α LBD protein [3]; agonist mode) [nM] | FRET LXRα efficacy (LXR α LBD protein [3]; agonist mode) [%] | Ki (LXR α LBD protein [4]) [nM] | Ki (LXR β LBD protein [5]) [nM] | Cell LXRα efficacy [6] | EC50 ([6]; read-out: Cell LXRα EC50) [nM] | FRET LXRβ efficacy (LXR β LBD protein [1]; agonist mode) | Cell LXRβ efficacy ([2]; agonist mode) | EC50 [6, 9] [nM] | other results
CS(=O)(=O)c1cccc(N2CCN(Cc3ccc(C(F)(F)F)nc3)[C@@H](c3ccccc3Cl)C2)c1 (single isomer, unassigned) [46-57] | 55 | 383 | 499 | 41 | 188 | 61 | 1244 (42) % | 1240 | – | – | – | FRET LXRβ efficacy (LXR β LBD protein [1]): 55 (56) %; Cell LXRβ efficacy [2]: 383 (38) %
CS(=O)(=O)c1cccc(N2CCN(Cc3ccc(OC(F)F)cc3)[C@@H](c3ccccc3)C2)c1 [46-11, (S)-1-(4-(difluoromethoxy)benzyl)-4-(3-(methylsulfonyl)phenyl)-2-phenylpiperazine] | 600 | > 20000 | 17300 | – | 3290 | 445 | 3753 (7) % | – | – | – | – | FRET LXRβ efficacy (LXR β LBD protein [1]): 600 (20) %; FRET LXRα efficacy (LXR α LBD protein [3]): 17300 (33) %; EC50 [6]: 3750 nM
CS(=O)(=O)c1cccc(N2CCN(CC3CCCOC3)[C@@H](c3ccccc3)C2)c1 (stereo partly drawn) [51-4, (2S)-4-(3-(methylsulfonyl)phenyl)-2-phenyl-1-((tetrahydro-2H-pyran-3-yl)methyl)piperazine] | > 50000 | > 20000 | – | – | > 3330 | 546 | – | > 20000 | – | – | – | EC50 (LXR α LBD protein [3]; [8]): > 50000 nM
CS(=O)(=O)c1cc(N2CCN(C[C@H]3CC[C@H](C(F)(F)F)CC3)[C@@H](c3ccccc3)C2)ccc1C#N (single isomer, unassigned) [50-4] | – | – | – | – | 2720 | – | 3065 (19) % | 3060 | – | – | – | FRET LXRβ efficacy (LXR β LBD protein [1]; [8]): 82%; EC50 (LXR β LBD protein [1]; [8]): 1630 nM; Cell LXRβ efficacy ([2]; Biological Test Example 2, agonist mode): 23%; EC50 ([2]; Biological Test Example 2, agonist mode, read-out: Cell LXRβ EC50): 1280 nM; EC50 (LXR α LBD protein [3]; [8]): 9560 nM; FRET LXRα efficacy (LXR α LBD protein [3]; [8]): 69%; Ki (LXR β LBD protein [5]; Biological Test Example 1): 516 nM
CS(=O)(=O)c1cccc(N2CCN(c3nccc(C(F)(F)F)n3)[C@H](c3ccc(F)cc3)C2)c1 [8-1, (R)-2-(2-(4-fluorophenyl)-4-(3-(methylsulfonyl)phenyl)piperazin-1-yl)-4-(trifluoromethyl)pyrimidine] | 62 | 493 | 665 | 41 | 454 | 36 | 2160 (16) % | – | 62 (75) % | 493 (31) % | 2160 | –
Cc1ccccc1[C@H]1CN(c2cccc(S(C)(=O)=O)c2)CCN1Cc1ccc(C(F)(F)F)nc1 (single isomer, unassigned) [46-46] | 1210 | 1990 | 6690 | 30 | > 3330 | 1980 | – | – | 1214 (51) % | 1989 (4) % | > 20000 | –
CS(=O)(=O)c1cccc(N2CCN(C[C@@H]3CCC[C@@H](C(F)(F)F)C3)[C@@H](c3ccc(F)cc3)C2)c1 (single isomer, unassigned) [48-39] | – | – | – | – | – | – | – | – | – | – | > 20000 | Cell LXRα efficacy [7]: 78 (86) %; IC50 ([7]; antagonist mode, 200 nM T0901317, HEK293 reporter gene assay, read-out: Cell LXRα IC50): 78 nM
CS(=O)(=O)c1cccc(N2CCN(CC3CCOCC3)[C@@H](c3ccccc3)C2)c1 [51-5, (S)-4-(3-(methylsulfonyl)phenyl)-2-phenyl-1-((tetrahydro-2H-pyran-4-yl)methyl)piperazine] | > 50000 | > 20000 | – | – | > 3330 | – | – | > 20000 | – | – | – | EC50 (LXR α LBD protein [3]; [8]): > 50000 nM; Ki (LXR β LBD protein [5]; Biological Test Example 1): 1020 nM
CC(C)c1ccc(CN2CCN(c3cccc(S(C)(=O)=O)c3)CC2c2ccccc2)cn1 (stereo not shown) [46-42, 1-((6-isopropylpyridin-3-yl)methyl)-4-(3-(methylsulfonyl)phenyl)-2-phenylpiperazine] | 1050 | 5900 | 984 | 53 | > 3330 | > 2500 | – | – | 1048 (53) % | 5895 (9) % | > 20000 | –
CS(=O)(=O)c1cc(N2CCN(C[C@H]3CC[C@@H](C(F)(F)F)CC3)[C@H](c3ccccc3)C2)ccc1C(N)=O (single isomer, unassigned) [17-38] | – | – | 3370 | 34 | 3130 | 753 | 4828 (13) % | 4830 | 71% | 18% | – | EC50 (LXR β LBD protein [1]; agonist mode): 561 nM; EC50 [2, 10]: 1790 nM
CS(=O)(=O)c1cccc(N2CCN(Cc3ccc(OC(F)(F)F)cc3)[C@@H](c3ccccc3)C2)c1 (single isomer, unassigned) [46-23] | 710 | 1430 | 7040 | 47 | 1040 | 112 | 4367 (45) % | 4370 | – | – | – | FRET LXRβ efficacy (LXR β LBD protein [1]): 710 (57) %; Cell LXRβ efficacy [2]: 1432 (29) %
CC(C)c1ccc(CN2CCN(c3cccc(S(C)(=O)=O)c3)C[C@H]2c2ccccc2)cc1 [46-7, (R)-1-(4-isopropylbenzyl)-4-(3-(methylsulfonyl)phenyl)-2-phenylpiperazine] | > 50000 | > 20000 | > 50000 | – | > 3330 | > 2500 | – | > 20000 | – | – | – | –
CS(=O)(=O)c1cccc(N2CCN(C[C@H]3CCN(CC(F)(F)F)C3)[C@@H](c3ccccc3)C2)c1 (single isomer, unassigned) [48-63] | 1550 | > 20000 | – | – | > 3330 | – | – | – | – | – | – | FRET LXRβ efficacy (LXR β LBD protein [1]; [8]): 1553 (30) %; EC50 (LXR α LBD protein [3]; [8]): 11700 nM; FRET LXRα efficacy (LXR α LBD protein [3]; [8]): 14%; Ki (LXR β LBD protein [5]; Biological Test Example 1): > 2500 nM; EC50 ([6]; Biological Test Example 2, agonist mode, read-out: Cell LXRα EC50): > 20000 nM
CS(=O)(=O)c1cc(N2CCN(C[C@H]3CC[C@H](C(F)(F)F)CC3)[C@@H](c3ccccc3)C2)ccc1C(N)=O (single isomer, unassigned) [17-37] | – | – | 605 | 53 | 3210 | 1010 | 16011 (50) % | 16000 | 85% | 24% | – | EC50 (LXR β LBD protein [1]; agonist mode): 355 nM; EC50 [2, 10]: 3530 nM
CC(C)(O)c1ccc(CN2CCN(c3cccc(S(C)(=O)=O)c3)C[C@@H]2c2ccccc2)cc1 [10-12, (S)-2-(4-((4-(3-(methylsulfonyl)phenyl)-2-phenylpiperazin-1-yl)methyl)phenyl)propan-2-ol] | 1140 | > 20000 | 1370 | 18 | > 3330 | > 2500 | – | > 20000 | 1141 (33) % | – | – | –
CS(=O)(=O)c1cc(F)cc(N2CCN(Cc3ccc(C(F)(F)F)nc3)C(c3ccccc3)C2)c1 (stereo not shown) [46-53, 4-(3-fluoro-5-(methylsulfonyl)phenyl)-2-phenyl-1-((6-(trifluoromethyl)pyridin-3-yl)methyl)piperazine] | 924 | 3280 | 2590 | 46 | > 3330 | 1520 | 11138 (23) % | – | – | 3280 (28) % | 11100 | –
